Reference: PMC10937556, “Phenolic phytochemistry, in vitro, in silico, in vivo, and mechanistic anti-inflammatory and antioxidant evaluations of Habenaria digitata” (Frontiers in Pharmacology, 2024)
Blank lines part the entries; values can stand above or below the compound they belong to.

How the values were obtained:
SOD = test: In vivo antioxidant: SOD activity in brain, heart, liver; parameters: species or system mice; conditions: for SOD activity: D-galactose aging mice
[1] = tested on: prostaglandin E2-induced paw edema; test: Prostaglandin E2-induced paw edema; conditions: 20 mg/kg, 4th hour (maximal)
Experimental: (§2) Employing prostaglandin E2, bradykinin, leukotriene, and histamine induced paw edema assays; the potential anti-inflammatory mechanism of the isolated compound was investigated. […] Sub-planter injections of prostaglandin E2 (0.01 mg/mL) or 10 mg/mL leukotriene or bradykinin (20 mg/mL) or 0.1 mL histamine (1 mg/mL) produced paw edema after 1 h. Each mouse’s paw volume was assessed immediately before and after sub-planter injection of various irritants (inflammatory agents) at 1–5 h.

[2] = tested on: bradykinin-induced paw edema; test: Bradykinin-induced paw edema
Experimental: as §2

MDA = test: In vivo antioxidant: MDA level; parameters: species or system mice; conditions: compound 1 (20 mg)
[3] = tested on: histamine-induced paw edema; test: Histamine-induced paw edema; conditions: 20 mg/kg, 2nd hour
Experimental: as §2

[4] = tested on: leukotriene-induced paw edema; test: Leukotriene-induced paw edema; conditions: 20 mg/kg
Experimental: as §2

COX-2 = biological target: T1, COX-2 (Homo sapiens, UniProt P35354); test: Cyclooxygenase COX-2 inhibition assay; type: biochemical; conditions: for inhibition at 62.5 µg/mL: 62.50 μg/mL; for inhibition at 1000 µg/mL: 1,000 µg/mL
T1 construct: purchased Sigma-Aldrich (local distributor) C0858
T1 sequence (P35354 18-604): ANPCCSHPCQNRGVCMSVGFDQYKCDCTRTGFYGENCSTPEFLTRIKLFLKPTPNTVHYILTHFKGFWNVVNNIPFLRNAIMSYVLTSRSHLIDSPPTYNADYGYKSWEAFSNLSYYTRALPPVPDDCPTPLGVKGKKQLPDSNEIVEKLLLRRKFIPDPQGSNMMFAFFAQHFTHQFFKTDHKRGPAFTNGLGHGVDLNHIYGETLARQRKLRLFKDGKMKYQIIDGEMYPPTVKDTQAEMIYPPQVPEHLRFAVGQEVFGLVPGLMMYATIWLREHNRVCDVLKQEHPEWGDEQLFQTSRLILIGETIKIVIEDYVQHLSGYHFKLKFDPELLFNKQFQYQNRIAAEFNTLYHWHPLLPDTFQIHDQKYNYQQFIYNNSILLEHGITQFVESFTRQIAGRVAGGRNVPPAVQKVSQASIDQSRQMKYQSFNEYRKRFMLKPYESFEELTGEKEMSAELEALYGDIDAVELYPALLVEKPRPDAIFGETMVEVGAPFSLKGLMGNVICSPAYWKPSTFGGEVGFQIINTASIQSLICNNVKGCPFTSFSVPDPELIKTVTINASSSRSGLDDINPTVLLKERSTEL
Experimental: The COX-2 enzyme solution with 300 U/mL concentrations was formed. The enzyme solution (10 µL) was maintained on ice up to 10 min for activation. Moreover, this solution was added to a 50 µL co-factor solution containing 1 mM hematin, 0.9 mM glutathione, and 0.24 mM N,N,N,N-tetramethyl-p-phenylenediamine dihydrochloride (TMPD) in 0.1 M Tris HCl buffer at pH 8.0. […] Likewise, 30 mM of arachidonic acid (20 µL) was mixed for initiating the reaction and incubated for 4–5 min. Following incubation, absorbance of the samples was determined using a UV-visible spectrophotometer at 570 nm. The percentage inhibition of the COX-2 enzyme was determined through the absorbance value per unit time. Enzyme inhibition against various concentrations of investigated samples was used to calculate the IC50 values.

[5] = ABTS free radical scavenging assay
Experimental: The ABTS anti-radicals’ analysis was carried out according to [Shah et al. (2015)]. The ABTS solution was prepared by dissolving ABTS salt (192 mg) in distilled H2O, transferred to a flask (50 mL), and volume was adjusted. Thereafter, 1 mL of the preceding solution was added to 17 µL of K₂S₂O₈ (140 mM) and placed in the dark for 24 h s. The experiment’s ultimate ABTS dilution was achieved by mixing 1 mL of the reaction mixture with 50 mL of methanol. The ABTS solution (190 µL) was mixed with the sample solution (10 µL) and added to 96-well plates, which were then incubated at room temperature in dark for 2 h. Following incubation, the measurement of ABTS color intensity was conducted using a microplate reader at 734 nm. Positive control solutions were prepared at values of 1,000–62.5 µM. The percentage of ABTS scavenging was determined by using the following equation: % ABTS scavenging=Control−Sample/control×100.

GSH-Px = test: In vivo antioxidant: GSH-Px activity in brain, heart, liver; conditions: D-galactose aging mice
Experimental: (§1) Twenty male albino mice were distributed into four groups, each with five mice. The control group (group 1) received 0.4 mL of distilled water. The compound was given in doses of 2.5, 5, and 10 mg/kg to groups 2, 3, and 4, respectively. Throughout the trial, the mice were given a daily dose for 3 weeks and were evaluated for alterations, other symptoms of toxicity, and death on a daily basis. Blood obtained by a direct heart puncture was utilized to assess the compound’s in vivo antioxidant activity 24 hours following the last dose ([Mota et al., 2023]).
The brain, liver, and heart homogenates were prepared in the cold saline via a homogenizer, and the unsolvable extract was discarded by centrifugation at 10,000 rpm for 15 min at temperature 4°C. After that, the supernatant was extracted immediately for GSH-Px assay ([Li et al., 2021]).

CAT = test: In vivo antioxidant: CAT activity; parameters: species or system mice; conditions: high tested dose
Experimental: as §1, with “Blood obtained by a direct heart puncture was utilized to assess the compound’s in vivo antioxidant activity 24 hours following the last dose ([Mota et al., 2023]).” left out
[…] […] The reaction was started by adding 0.1 mL of fresh 30 mM H2O2, and the decomposition rate of H2O2 was measured on a spectrophotometer at 240 nm for 5 min. Catalase activity was determined using a molar extinction coefficient of 0.041 mM^−1 cm^−1.

SMILES: Cc1cnc(O)nc1O [Compound 1, 5-methylpyrimidine-24,4-diol]
SOD activity (SOD; brain, high-dosage group): 95 U/mL | SOD activity (SOD; heart, compound 1 (10 mg) group): 140.0 U/mg proteins | SOD activity (SOD; heart, high-dosage group): 180.0 U/mg proteins | SOD activity (SOD; liver, high-dosage group): 890.0 U/mg protein | SOD activity compared to the model group (SOD; p < 0.05, D-galactose aging mice): higher | Percentage inhibition of prostaglandin E2-induced paw edema [1]: 82.0 ± 0.34% | Percentage inhibition of bradykinin-induced paw edema ([2]; 20 mg/kg, initial hour): 9.20 ± 1.12% | Activity against bradykinin-induced paw edema ([2]; low doses): no activity | MDA concentration (MDA; brain): 1.15 nmol/mL | MDA concentration (MDA; heart): 0.8 nmol/mg protein | MDA concentration (MDA; liver): 0.4 nmol/mg protein | Percentage inhibition of histamine-induced paw edema [3]: 28.12 ± 0.62% | Percentage inhibition of leukotriene-induced paw edema ([4]; 1 h): 53.00 ± 1.10% | Percentage inhibition of leukotriene-induced paw edema ([4]; 2 h): 59.50 ± 0.92% | Percentage inhibition of leukotriene-induced paw edema ([4]; 3 h): 62.0 ± 0.70% | Percentage inhibition of leukotriene-induced paw edema ([4]; 4 h): 54.84 ± 0.92% | Percentage inhibition of leukotriene-induced paw edema ([4]; 5 h): 41.43 ± 1.10% | IC50 (COX-2): 84.8 µM | inhibition at 62.5 µg/mL (COX-2): 61.1 ± 0.7% | inhibition at 125 µg/mL (COX-2): 66.4 ± 0.7% | inhibition at 250 µg/mL (COX-2): 72.7 ± 0.51% | inhibition at 500 µg/mL (COX-2): 78.83 ± 0.73% | inhibition at 1000 µg/mL (COX-2): 83.13 ± 0.8% | ABTS IC50 [5]: 0.98 µg/mL | ABTS % inhibition ([5]; 62.5 µg/mL): 75.90 ± 0.48 % | ABTS % inhibition ([5]; 125 µg/mL): 79.03 ± 0.48 % | ABTS % inhibition ([5]; 250 µg/mL): 84.90 ± 0.96 % | ABTS % inhibition ([5]; 500 µg/mL): 87.65 ± 1.34 % | ABTS % inhibition ([5]; 1,000 µg/mL): 91.58 ± 1.12 % | GSH-Px activity in brain, heart and liver (GSH-Px): enhances the activity of GSH-Px | CAT activity (CAT; brain): 97 U/mL | CAT activity (CAT; heart): 143.02 U/mg protein | CAT activity (CAT; liver): 139.0 U/mg protein

SMILES: CC1=C(O)C(=O)C(O)CO1 (centres unmarked) [Compound 2, 3,5-dihydroxy-6-methyl-2,3-dihydro-4H-pyran-4-one]
IC50 (COX-2): 101 µM | inhibition at 62.5 µg/mL (COX-2): 58.12 ± 0.34% | inhibition at 125 µg/mL (COX-2): 63.47 ± 0.49% | inhibition at 250 µg/mL (COX-2): 68.75 ± 0.14% | inhibition at 500 µg/mL (COX-2): 75.59 ± 0.3% | inhibition at 1000 µg/mL (COX-2): 80.85 ± 0.18% | ABTS IC50 [5]: 03 µg/mL | ABTS % inhibition ([5]; 62.5 µg/mL): 68.52 ± 0.38 % | ABTS % inhibition ([5]; 125 µg/mL): 72.64 ± 0.16 % | ABTS % inhibition ([5]; 250 µg/mL): 77.61 ± 1.70 % | ABTS % inhibition ([5]; 500 µg/mL): 81.94 ± 0.45 % | ABTS % inhibition ([5]; 1,000 µg/mL): 86.47 ± 0.22 %

SMILES: Cc1ccc(C(C)C)c(O)c1 [Compound 3, 2-isopropyl-5-methylphenol]
IC50 (COX-2): 145 µM | inhibition at 62.5 µg/mL (COX-2): 53 ± 0.57% | inhibition at 125 µg/mL (COX-2): 62.5 ± 0.44% | inhibition at 250 µg/mL (COX-2): 66.33 ± 0.33% | inhibition at 500 µg/mL (COX-2): 74.7 ± 1.2% | inhibition at 1000 µg/mL (COX-2): 79 ± 0.16% | ABTS IC50 [5]: 21 µg/mL | ABTS % inhibition ([5]; 62.5 µg/mL): 65.00 ± 0.30 % | ABTS % inhibition ([5]; 125 µg/mL): 72.54 ± 0.50 % | ABTS % inhibition ([5]; 250 µg/mL): 76.69 ± 0.77 % | ABTS % inhibition ([5]; 500 µg/mL): 83.67 ± 0.61 % | ABTS % inhibition ([5]; 1,000 µg/mL): 87.79 ± 0.63 %

Further lines, with some results ahead:

IC50 (COX-2): 135 µM | inhibition at 62.5 µg/mL (COX-2): 55.56 ± 0.52% | inhibition at 125 µg/mL (COX-2): 64.78 ± 0.6% | inhibition at 250 µg/mL (COX-2): 71.46 ± 0.53% | inhibition at 500 µg/mL (COX-2): 77.68 ± 0.63% | inhibition at 1000 µg/mL (COX-2): 85.72 ± 0.79% | ABTS IC50 [5]: 42 µg/mL
SMILES: C=Cc1ccc(O)cc1OC [Compound 4, 3-methoxy-4-vinylphenol]
ABTS % inhibition ([5]; 62.5 µg/mL): 57.00 ± 1.15 % | ABTS % inhibition ([5]; 125 µg/mL): 61.67 ± 0.89 % | ABTS % inhibition ([5]; 250 µg/mL): 65.00 ± 0.58 % | ABTS % inhibition ([5]; 500 µg/mL): 72.03 ± 0.23 % | ABTS % inhibition ([5]; 1,000 µg/mL): 75.33 ± 0.49 %

IC50 (COX-2): 217 µM | inhibition at 62.5 µg/mL (COX-2): 46.9 ± 0.42% | inhibition at 125 µg/mL (COX-2): 56.4 ± 0.63% | inhibition at 250 µg/mL (COX-2): 61 ± 0.33% | inhibition at 500 µg/mL (COX-2): 66.2 ± 0.73% | ABTS IC50 [5]: 30 µg/mL
SMILES: C=Cc1cc(OC)c(O)c(OC)c1 [Compound 5, 2,6-dimethoxy-4-vinylphenol]
ABTS % inhibition ([5]; 62.5 µg/mL): 60.59 ± 0.30 % | ABTS % inhibition ([5]; 125 µg/mL): 63.08 ± 1.04 % | ABTS % inhibition ([5]; 250 µg/mL): 68.76 ± 0.61 % | ABTS % inhibition ([5]; 500 µg/mL): 74.31 ± 0.58 % | ABTS % inhibition ([5]; 1,000 µg/mL): 79.49 ± 0.60 %
